# pIC50: −log10 of the molar value.
# Test system: Influenza A/WSN/33 (H1N1) virus
# Experiment: In vitro anti-influenza virus assay (neutralization test), cytopathic effect on MDCK cells
# Type: cell-based
# Conditions: MDCK cells, 72 h, lower bound (10 nM), upper in μM, read-out: IC50 (concentration reducing virus-induced cytopathic effect by 50%)
# Description: Anti-influenza activities of the coumarin compounds were evaluated by measuring the ability of a test compound to inhibit the cytopathic effect induced by an influenza virus on MDCK cells. The 96-well tissue culture plates were seeded with 200 μL of MDCK cells at a concentration of 1.1×10^5 cells/mL in DMEM with 10% fetal bovine serum (FBS). The plates were incubated for 24-30 h at 37° C. and were used at about 90% confluency. Influenza A/WSN/33 (H1N1) virus (100 TCID50) was added to the cells and incubated at 35° C. for 1 h. After adsorption, the infected cell plates were overlaid with 50 μL of DMEM plus 2% FBS and a test compound with different concentrations. The plate was incubated at 35° C. for 72 h. At the end of incubation, the plates were fixed by the addition of 100 μL of 4% formaldehyde for 1 h at room temperature. After the removal of formaldehyde, the plates were stained with 0.1% crystal violet for 15 min at room temperature. The plates were washed and dried, and the density of the well was measured at 570 nm. The concentration required for a test compound to reduce the virus-induced cytopathic effect (CPE) by 50% relative to the virus control was expressed as IC50.
# Compounds 1 and 95 were also tested on various influenza virus strains. Amantadine or Relenza was also tested for comparison. IC50 is defined as the concentration required for a test compound to reduce the virus-induced cytopathic effect (CPE) by 50% relative to the virus control.
row,Compound,IC50 [nM]
1,Cc1cc(=O)oc2c1ccc1oc(C(=O)c3ccccc3)c(-c3ccc([N+](=O)[O-])cc3)c12 [Compound 145],10 to 999
2,Cc1cc(=O)oc2c1ccc1oc(C(=O)c3ccccc3)c(-c3cccc(N)c3)c12 [Compound 146],10 to 999
3,Cc1cc(=O)oc2c1ccc1oc(C(=O)c3ccccc3)c(-c3cc(F)cc(F)c3)c12 [Compound 148],10 to 999
4,Cc1cc(=O)oc2c1ccc1oc(C(=O)c3ccccc3)c(-c3cc(Br)cc(Br)c3)c12 [Compound 150],10 to 999
5,CCCc1c(C(=O)c2ccccc2)oc2ccc3c(C)cc(=O)oc3c12 [Compound 155],10 to 999
6,CCCCCc1c(C(=O)c2ccccc2)oc2ccc3c(C)cc(=O)oc3c12 [Compound 156],10 to 999
7,CCCCCCc1c(C(=O)c2ccccc2)oc2ccc3c(C)cc(=O)oc3c12 [Compound 157],10 to 999
8,Cc1cc(=O)oc2c1ccc1oc(C(=O)c3ccccc3)c(-c3ccco3)c12 [Compound 159],10 to 999
9,Cc1cc(=O)oc2c1ccc1oc(C(=O)c3ccccc3)c(-c3cccs3)c12 [Compound 160],10 to 999
10,Cc1cc(=O)oc2c1ccc1oc(C(=S)c3ccccc3)c(-c3ccccc3)c12 [Compound 166],10 to 999
11,Cc1cc(=O)oc2c1ccc1oc(C(O)c3ccccc3)c(-c3ccccc3)c12 (stereo not shown) [Compound 172],10 to 999
12,Cc1cc(=O)oc2c1ccc1oc(Cc3ccccc3)c(-c3ccccc3)c12 [Compound 173],10 to 999
13,Cc1cc(=O)oc2c1ccc1oc(C(=O)c3cccc(OCC4CC4)c3)c(-c3ccccc3)c12 [Compound 179],10 to 999
14,CC(=O)Oc1cccc(C(=O)c2oc3ccc4c(C)cc(=O)oc4c3c2-c2ccccc2)c1 [Compound 180],10 to 999
15,Cc1cc(=O)oc2c1ccc1oc(C(=O)c3cccc(OCCCCO)c3)c(-c3ccccc3)c12 [Compound 186],10 to 999
16,Cc1cc(=O)oc2c1ccc1oc(C(=O)c3cccc(OCCCCCCO)c3)c(-c3ccccc3)c12 [Compound 188],10 to 999
17,Cc1cc(=O)oc2c1ccc1oc(C(=O)c3cccc(OCCO[Si](C)(C)C(C)(C)C)c3)c(-c3ccccc3)c12 [Compound 189],10 to 999
18,Cc1cc(=O)oc2c1ccc1oc(C(=O)c3ccccc3)c(-c3cccc4ccccc34)c12 [Compound 206],10 to 999
19,Cc1cc(=O)oc2c1ccc1oc(C(=O)c3cccc(Cl)c3)c(-c3ccc(F)cc3)c12 [Compound 222],10 to 999
20,C#CCOc1cccc(C(=O)c2oc3ccc4c(C)cc(=O)oc4c3c2-c2ccccc2)c1 [Compound 233],10 to 999
21,Cc1cc(=O)oc2c1ccc1oc(C(O)c3ccccc3)c(-c3cccc(C#N)c3)c12 (stereo not shown) [Compound 234],10 to 999
22,CC(=O)OCCCCCCOc1cccc(C(=O)c2oc3ccc4c(C)cc(=O)oc4c3c2-c2ccccc2)c1 [Compound 237],10 to 999
23,COc1cccc(C(=O)c2oc3ccc4c(C)cc(=O)oc4c3c2-c2ccccc2F)c1 [Compound 245],10 to 999
24,COc1cccc(C(=O)c2oc3ccc4c(C)cc(=O)oc4c3c2-c2cccc(F)c2)c1 [Compound 246],10 to 999
25,COc1cccc(C(=O)c2oc3ccc4c(C)cc(=O)oc4c3c2-c2cccc(C)c2)c1 [Compound 247],10 to 999
26,COc1cccc(C(=O)c2oc3ccc4c(C)cc(=O)oc4c3c2-c2ccc(Br)cc2)c1 [Compound 252],10 to 999

# Same assay, conditions: MDCK cells, 72 h, ranges given, read-out: IC50 (concentration reducing virus-induced cytopathic effect by 50%)
row,Compound,pIC50
1,Cc1cc(=O)oc2c1ccc1oc(C(=O)c3ccccc3)c(-c3ccc4ccccc4c3)c12 [Compound 147],5.23 to 6.00
2,Cc1cc(=O)oc2c1ccc1oc(C(=O)c3ccccc3)c(-c3cc(Cl)cc(Cl)c3)c12 [Compound 149],5.23 to 6.00
3,Cc1cc(=O)oc2c1ccc1oc(C(=O)c3ccccc3)cc12 [Compound 153],5.23 to 6.00
4,Cc1cc(=O)oc2c1ccc1oc(C(=O)c3ccccc3)c(C)c12 [Compound 154],5.23 to 6.00
5,Cc1cc(=O)oc2c1ccc1oc(C(=O)c3ccccc3)c(/C=C/c3ccccc3)c12 [Compound 161],5.23 to 6.00
6,Cc1cc(=O)oc2c1ccc1oc(C(=O)c3ccccc3)c(C3CCCCC3)c12 [Compound 165],5.23 to 6.00
7,Cc1cc(=O)oc2c1ccc1oc(/C(=N/O)c3ccccc3)c(-c3ccccc3)c12 [Compound 171],5.23 to 6.00
8,Cc1cc(=O)oc2c1ccc1oc(C(=O)c3cccc(OCCOCCOCCO)c3)c(-c3ccccc3)c12 [Compound 177],4.60 to 5.22
9,Cc1cc(=O)oc2c1ccc1oc(C(=O)c3cccc(OCCOCCOCCOCCCl)c3)c(-c3ccccc3)c12 [Compound 178],5.23 to 6.00
10,Cc1cc(=O)oc2c1ccc1oc(C(=O)c3cccc(OC(=O)C4CC4)c3)c(-c3ccccc3)c12 [Compound 181],5.23 to 6.00
11,C=CC(=O)Oc1cccc(C(=O)c2oc3ccc4c(C)cc(=O)oc4c3c2-c2ccccc2)c1 [Compound 182],5.23 to 6.00
12,Cc1cc(=O)oc2c1ccc1oc(C(=O)c3cccc(OCCN[C@@]45C[C@@H]6C[C@@H](C[C@@](O)(C6)C4)C5)c3)c(-c3ccccc3)c12 [Compound 183],4.60 to 5.22
13,Cc1cc(=O)oc2c1ccc1oc(C(=O)c3cccc(OCCO)c3)c(-c3ccccc3)c12 [Compound 184],4.60 to 5.22
14,Cc1cc(=O)oc2c1ccc1oc(C(=O)c3cccc(OCCCO)c3)c(-c3ccccc3)c12 [Compound 185],5.23 to 6.00
15,Cc1cc(=O)oc2c1ccc1oc(C(=O)c3cccc(OCCCCCO)c3)c(-c3ccccc3)c12 [Compound 187],5.23 to 6.00
16,Cc1cc(=O)oc2c1ccc1oc(C(=O)c3cccc(OCCCO[Si](C)(C)C(C)(C)C)c3)c(-c3ccccc3)c12 [Compound 190],5.23 to 6.00
17,Cc1cc(=O)oc2c1ccc1oc(C(=O)c3cccc(OCCCCCCO[Si](C)(C)C(C)(C)C)c3)c(-c3ccccc3)c12 [Compound 193],5.23 to 6.00
18,CC(=O)OCC1C(OCCOc2cccc(C(=O)c3oc4ccc5c(C)cc(=O)oc5c4c3-c3ccccc3)c2)OC(OC(C)=O)C(OC(C)=O)C1OC(C)=O (stereo not shown) [Compound 194],4.60 to 5.22
19,Cc1cc(=O)oc2c1ccc1oc(C(=O)c3cccc(OCCOC4OC(O)C(O)C(O)C4CO)c3)c(-c3ccccc3)c12 (stereo not shown) [Compound 195],4.60 to 5.22
20,CC(=O)OCC1OC(OCCCOc2cccc(C(=O)c3oc4ccc5c(C)cc(=O)oc5c4c3-c3ccccc3)c2)C(OC(C)=O)C(OC(C)=O)C1OC(C)=O (stereo not shown) [Compound 196],4.60 to 5.22
21,Cc1cc(=O)oc2c1ccc1oc(C(=O)c3cccc(OCCCOC4OC(CO)C(O)C(O)C4O)c3)c(-c3ccccc3)c12 (stereo not shown) [Compound 197],4.60 to 5.22

row,Compound,pIC50
1,Cc1cc(=O)oc2c1ccc1oc(C(=O)c3cccc(OC(=O)C#Cc4ccccc4)c3)c(-c3ccccc3)c12 [Compound 201],5.23 to 6.00
2,C#CCCC(=O)Oc1cccc(C(=O)c2oc3ccc4c(C)cc(=O)oc4c3c2-c2ccccc2)c1 [Compound 202],5.23 to 6.00
3,CCCCCC#CC(=O)Oc1cccc(C(=O)c2oc3ccc4c(C)cc(=O)oc4c3c2-c2ccccc2)c1 [Compound 203],5.23 to 6.00
4,Cc1cc(=O)oc2c1ccc1oc(C(=O)O)c(-c3ccccc3)c12 [Compound 205],5.23 to 6.00
5,Cc1cc(=O)oc2c1ccc1oc(C(=O)c3ccccc3)c(-c3cccc(C(=O)O)c3)c12 [Compound 207],5.23 to 6.00
6,Cc1cc(=O)oc2c1ccc1oc(C(=O)c3ccc([N+](=O)[O-])cc3)c(-c3ccc(Br)cc3)c12 [Compound 216],4.60 to 5.22
7,Cc1cc(=O)oc2c1ccc1oc(C(=O)c3cccc(Cl)c3)c(-c3ccc(Br)cc3)c12 [Compound 217],4.60 to 5.22
8,Cc1cc(=O)oc2c1ccc1oc(C(=O)c3ccc4ccccc4c3)c(-c3ccc(F)cc3)c12 [Compound 220],5.23 to 6.00
9,Cc1cc(=O)oc2c1ccc1oc(C(=O)c3cc(F)ccc3F)c(-c3ccc(F)cc3)c12 [Compound 221],5.23 to 6.00
10,Cc1cc(=O)oc2c1ccc1oc(C(=O)c3ccccc3)c(-c3ccc(Cl)c(Cl)c3)c12 [Compound 224],4.60 to 5.22
11,Cc1cc(=O)oc2c1ccc1oc(C(O)c3ccccc3)cc12 (stereo not shown) [Compound 226],5.23 to 6.00
12,Cc1cc(=O)oc2c1ccc1[nH]c3ccccc3c12 [Compound 231],4.60 to 5.22
13,Cc1cc(=O)oc2c1ccc1oc(C(=O)c3cccc(OCCCCI)c3)c(-c3ccccc3)c12 [Compound 236],5.23 to 6.00
14,Cc1cc(=O)oc2c1ccc1oc(C(=O)c3ccccc3)c(-c3ccc(O)cc3)c12 [Compound 239],5.23 to 6.00
15,Cc1cc(=O)oc2c1ccc1oc(C(=O)c3cccc(OCCN4CCc5ccccc5C4)c3)c(-c3ccccc3)c12 [Compound 240],5.23 to 6.00
16,Cc1cc(=O)oc2c1ccc1oc(C(=O)c3cccc(OCCN4Cc5ccccc5C4)c3)c(-c3ccccc3)c12 [Compound 241],5.23 to 6.00
17,CCCCCCCCOc1cccc(C(=O)c2oc3ccc4c(C)cc(=O)oc4c3c2-c2ccccc2)c1 [Compound 243],4.60 to 5.22
18,COc1ccc(-c2c(C(=O)c3ccccc3)oc3ccc4c(C)cc(=O)oc4c23)cc1 [Compound 248],4.60 to 5.22
19,Cc1cc(=O)oc2c1ccc1oc(C(=O)c3cccc(OP(=O)(O)O)c3)c(-c3ccccc3)c12 [Compound 249],5.23 to 6.00
20,Cc1cc(=O)oc2c1ccc1oc(C(=O)c3cccs3)c(-c3ccc(Br)cc3)c12 [Compound 254],5.23 to 6.00

# From patent US20090312406A1, “COUMARIN COMPOUNDS AND THEIR USE FOR TREATING VIRAL INFECTION” (priority 2008, published 2009)
